Reference: patent US8703106B2, “Chlorine dioxide treatment for biological tissue” (priority 2009, dated 2014)

Columns and labels:
bacteria in wounds = test: Pig wound model, chlorine dioxide with sonication (Example 5); type: in vivo; details: 400 ppm solution, 8 x 15 min, plus three 4 min sonications at about 20 kHz, 40% duty cycle
Description: An experiment was performed to assess the efficacy of a combination therapy of chlorine dioxide administration and sonication on bacterial levels in wounds. The animal model was a pig. Sixteen wounds were introduced and inoculated with bacteria as described in Example 6. On Day 2, treatment was administered. There were control wounds that were not treated with either chlorine dioxide or ultrasound. Test wounds were treated with ultrasonic energy for 4 minutes, using a frequency of about 20 kHz, a 40% duty cycle and a range of power intensities up to 3.5 W/cm^2; each test wound received a total of three sonication treatments. Test wounds were treated with a 400 ppm chlorine dioxide solution applied to each wound in 8 separate, contiguous applications of 15 minutes duration each (total of 120 minutes of exposure to 400 ppm chlorine dioxide) and each application used a fresh specimen of the solution. Each treated wound received a total of three×4 minute sonication over the course of the 2 hours of chlorine dioxide treatment.
Wounds were biopsied after treatment as described in Example 4.

[1] = system: methicillin resistant Staphylococcus aureus (MRSA) biofilm; test: Biofilm kill on ceramic disks, clean system (Example 1); type: cell-based; details: for Log Reduction in Organism Count: MRSA
Description: (§1) A series of experiments were conducted to estimate the dosage of chlorine dioxide needed to kill bacterial biofilms consisting of Pseudomonas acruginosa (PA), methicillin resistant Staphylococcus aureus (MRSA), or a combination of both.
(§2) Bacterial biofilms were grown for between 7 and 10 days on non-porous ceramic disks in a spinning disk biofilm reactor. The reactors were inoculated with PA, MRSA, or a mixture of MRSA and PA bacteria to produce PA, MRSA, or mixed PA/MRSA biofilms respectively.
(§3) Chlorine dioxide solutions were produced at different nominal concentrations using ASEPTROL S-Tab10 tablets, and the exact concentrations were then measured using a Hach Model 2400 UV/Vis spectrophotometer in accordance with the manufacturer's instructions. Pairs of biofilm-containing disks were immersed for different times in solutions of different chlorine dioxide concentrations, neutralized with dilute sodium thiosul fate solution, and then plated to determine the number of surviving bacteria on each disk. Two untreated disks were also exposed to neutralizing solution and plated to determine the starting bacterial counts. In all tests, the baseline bacterial counts were in the range of 10^7 to 10^7.5 colony-forming units per disk (cfu/disk). A one log reduction refers to reducing the cfu/disk by one order of magnitude, e.g., a reduction from 10^7.1 cfu/disk to 10^6.1 cfu/disk. Accordingly, a substantially complete kill is achieved in the example if the log reduction of bacteria is about 7 to 7.5.
(§4) The results are presented in terms of log reduction of the different bacterial organisms. In the case of mixed PA/MRSA biofilms, results are given as total bacteria.

[2] = system: Pseudomonas aeruginosa (PA) biofilm; test: as above; type: cell-based; details: for Log Reduction in Organism Count: PA
Description: as §1, §2, §3, §4

mixed PA/MRSA biofilm = test: Biofilm kill in protein-rich (FBS) environment (Example 3); type: cell-based, Pseudomonas aeruginosa and Staphylococcus aureus; details: for Log Reduction in Organism Count: MRSA + PA
Description: (§5) Chlorine dioxide efficacy against biofilm in protein-rich environment A series of experiments were conducted to determine the effect of FBS on the kill of PA. MRSA and mixture PA/MRSA biofilms. Biofilms were grown as described in Example 1, Disks were immersed in 25 ml of FBS solution at double the target FBS concentration, and to that was added 25 ml of chlorine dioxide solution at double the target chlorine dioxide concentration. After the desired contact time, disks were removed from the treatment solutions, neutralized, and plated as described above.
(§6) Dosage is given both as the nominal dose based upon the initial chlorine dioxide concentration, and the actual dosage as estimated from the initial chlorine dioxide concentration and the decay relationships described above.
(§7) Columns 3-6 are measured data; columns 7-11 are calculated data. For K2 having a positive sign (such as Samples 20-21), it was assumed that there was insufficient FBS present to cause a material loss of chlorine dioxide. Therefore, for such samples, it was assumed that chlorine dioxide was unchanged over the time of the experiment FIG. 4 is a graph of the results.

MRSA biofilm = test: as above; type: cell-based, Staphylococcus aureus; details: for Log Reduction in Organism Count: MRSA
Description: as §5, §6, §7

[3] = Chlorine dioxide loss in fetal blood serum (FBS) solution; type: physicochemical
Description: A series of experiments were conducted to estimate and quantify the effect of blood serum on chlorine dioxide concentration. Solutions of chlorine dioxide and fetal blood serum (FBS) were prepared at different concentrations of chlorine dioxide and FBS, and the chlorine dioxide concentration was tracked using a Spectral Physics UV/Visible spectrophotometer with a direct insertion probe (1 mm path length).
The initial chlorine dioxide concentration was measured using a Hach Model 2400 UV/Vis spectrophotometer. A UV/Vis scan was then measured over the wavelength range of about […] using the direct insertion probe, and this was used to calculate the initial absorbance of the solution. FBS was then added, and UV/Vis scans were run periodically thereafter. The area of the chlorine dioxide absorbance peak was calculated for each scan, and the relative chlorine dioxide concentration at each time was calculated by dividing the area at each time point by the peak area of the initial scan (prior to FBS addition). Relative chlorine dioxide concentration was plotted versus time for each set of chlorine dioxide and FBS concentrations. […] The exponent K2 in the equation is an estimate of the decay rate of chlorine dioxide in the FBS solution. The weight ratio of FBS to chlorine dioxide was calculated by dividing, the mass of FBS added to the solution by the mass of chlorine dioxide in the solution.
as §6, §7

[O][Cl+][O-] [ClO2, chlorine dioxide]
bacterial counts in test wounds (bacteria in wounds; as a function of power intensity up to 3.5 W/cm^2): decrease significantly (multiple log reductions) | bacterial kill in test wounds (bacteria in wounds; at 3.5 W/cm^2): substantially complete log kill | dosage achieving a kill of about 5 orders of magnitude (5 log) ([1]; MRSA biofilm, clean system (Sample 1)): greater than 200 ppm-min | Log Reduction in Organism Count ([1]; Sample 1, 1.0 min, 208 ppm ClO2, 208 ppm-min): 5.5 log | Log Reduction in Organism Count ([1]; Sample 2, 5.0 min, 204 ppm ClO2, 1020 ppm-min): 7.1 log | Log Reduction in Organism Count ([1]; Sample 3 (second line), 30.0 min, 40 ppm ClO2, 1200 ppm-min): 5.1 log | Log Reduction in Organism Count ([1]; Sample 3, 10.0 min, 45 ppm ClO2, 450 ppm-min): 5.5 log | Log Reduction in Organism Count ([1]; Sample 4, 30.0 min, 175 ppm ClO2, 5250 ppm-min): 7.1 log | dosage achieving a kill of about 5 orders of magnitude (5 log) ([2]; PA biofilm, clean system (Sample 7)): greater than 200 ppm-min | Log Reduction in Organism Count ([2]; Sample 6, 0.5 min, 200 ppm ClO2, 100 ppm-min): 5.9 log | Log Reduction in Organism Count ([2]; Sample 7, 5.0 min, 43 ppm ClO2, […]-min): 5.7 log | Log Reduction in Organism Count ([2]; Sample 8, 5.0 min, 187 ppm ClO2, 935 ppm-min): 7.5 log | Log Reduction in Organism Count ([2]; Sample 9, 10.0 min, 37 ppm ClO2, 370 ppm-min): 7.5 log | Log Reduction in Organism Count ([2]; Sample 10, 50.0 min, 35 ppm ClO2, 1750 ppm-min): 7.5 log | Log Reduction in Organism Count ([2]; Sample 11, 50.0 min, 166 ppm ClO2, 8300 ppm-min): 7.5 log | Log Reduction in Organism Count (mixed PA/MRSA biofilm; Sample 17, FBS 131 mg/mg ClO2, 15.0 min, initial 191 ppm, nominal 2865, corrected 2236 ppm-min): 8.2 log | Log Reduction in Organism Count (mixed PA/MRSA biofilm; Sample 18, FBS 131 mg/mg ClO2, 40.0 min, initial 191 ppm, nominal 7640, corrected 5559 ppm-min): 8.2 log | Log Reduction in Organism Count (mixed PA/MRSA biofilm; Sample 19, FBS 104 mg/mg ClO2, 15.0 min, initial 240 ppm, nominal and corrected 3600 ppm-min): 8.2 log | Log Reduction in Organism Count (mixed PA/MRSA biofilm; Sample 20, FBS 104 mg/mg ClO2, 30.0 min, initial 240 ppm, nominal and corrected 7200 ppm-min): 8.2 log | Log Reduction in Organism Count (mixed PA/MRSA biofilm; Sample 21, FBS 104 mg/mg ClO2, 60.0 min, initial 240 ppm, nominal and corrected 14400 ppm-min): 8.2 log | corrected dose rate resulting in complete kill (mixed PA/MRSA biofilm; mixed PA/MRSA biofilm, with FBS): ≥ 2000 ppm-rain | corrected dose rate resulting in complete kill (MRSA biofilm; MRSA biofilm, with FBS): ≥ 2000 ppm-rain | Log Reduction in Organism Count (MRSA biofilm; Sample 22, FBS 131 mg/mg ClO2, 15.0 min, initial 191 ppm, nominal 2865, corrected 2236 ppm-min): 4.7 log | Log Reduction in Organism Count (MRSA biofilm; Sample 23, FBS 131 mg/mg ClO2, 40.0 min, initial 191 ppm, nominal 7640, corrected 5559 ppm-min): 4.7 log | Log Reduction in Organism Count (MRSA biofilm; Sample 24, FBS 104 mg/mg ClO2, 15.0 min, initial 240 ppm, nominal and corrected 3600 ppm-min): 4.7 log | Log Reduction in Organism Count (MRSA biofilm; Sample 25, FBS 104 mg/mg ClO2, 30.0 min, initial 240 ppm, nominal and corrected 7200 ppm-min): 4.7 log | Log Reduction in Organism Count (MRSA biofilm; Sample 26, FBS 104 mg/mg ClO2, 60.0 min, initial 240 ppm, nominal and corrected 14400 ppm-min): 4.7 log | Final ClO2 Concentration ([3]; 104 mg FBS/mg ClO2, initial 240 ppm, 15.0 min, assumed unchanged): 240 ppm | Final ClO2 Concentration ([3]; 104 mg FBS/mg ClO2, initial 240 ppm, 30.0 min, assumed unchanged): 240 ppm | Final ClO2 Concentration ([3]; 104 mg FBS/mg ClO2, initial 240 ppm, 60.0 min, assumed unchanged): 240 ppm | Decay rate, K2 ([3]; 104 mg FBS/mg ClO2, initial 240 ppm, calculated, positive K2 taken as no loss): 0.0344 | Final ClO2 Concentration ([3]; 131 mg FBS/mg ClO2, initial 191 ppm, 15.0 min, calculated): 107 ppm | Final ClO2 Concentration ([3]; 131 mg FBS/mg ClO2, initial 191 ppm, 40.0 min, calculated): 87 ppm | Decay rate, K2 ([3]; 131 mg FBS/mg ClO2, initial 191 ppm, calculated from K2=-0.00927(FBS/ClO2)+1): −0.2134
